Laboratory results taken from publication PMC11889359, “Site-Specific Competitive Kinase Inhibitor Target Profiling Using Phosphonate Affinity Tags” (Molecular & Cellular Proteomics : MCP, 2025).
Values joined by “and” are separate entries in the source; they are usually repeats but may differ in a detail not shown here. Equal values may be shown once. Read-outs that look alike come from different tables or passages of the source.

Tests used:
[1] = molecular target: T1, cyclin G–associated kinase (GAK) (Homo sapiens, UniProt O14976); assay: Competitive site-specific PhosID-ABPP with XO44 in intact A549 cells; assay type: binding; conditions: apparent IC50, lysine 175 in ATP pocket, n = 3, read-out: IC50 GAK;K175
T1 construct: endogenous in cells; host or cells: cultured cells treated intact (A549 per the earlier reading)
T1 sequence (O14976 1-1311): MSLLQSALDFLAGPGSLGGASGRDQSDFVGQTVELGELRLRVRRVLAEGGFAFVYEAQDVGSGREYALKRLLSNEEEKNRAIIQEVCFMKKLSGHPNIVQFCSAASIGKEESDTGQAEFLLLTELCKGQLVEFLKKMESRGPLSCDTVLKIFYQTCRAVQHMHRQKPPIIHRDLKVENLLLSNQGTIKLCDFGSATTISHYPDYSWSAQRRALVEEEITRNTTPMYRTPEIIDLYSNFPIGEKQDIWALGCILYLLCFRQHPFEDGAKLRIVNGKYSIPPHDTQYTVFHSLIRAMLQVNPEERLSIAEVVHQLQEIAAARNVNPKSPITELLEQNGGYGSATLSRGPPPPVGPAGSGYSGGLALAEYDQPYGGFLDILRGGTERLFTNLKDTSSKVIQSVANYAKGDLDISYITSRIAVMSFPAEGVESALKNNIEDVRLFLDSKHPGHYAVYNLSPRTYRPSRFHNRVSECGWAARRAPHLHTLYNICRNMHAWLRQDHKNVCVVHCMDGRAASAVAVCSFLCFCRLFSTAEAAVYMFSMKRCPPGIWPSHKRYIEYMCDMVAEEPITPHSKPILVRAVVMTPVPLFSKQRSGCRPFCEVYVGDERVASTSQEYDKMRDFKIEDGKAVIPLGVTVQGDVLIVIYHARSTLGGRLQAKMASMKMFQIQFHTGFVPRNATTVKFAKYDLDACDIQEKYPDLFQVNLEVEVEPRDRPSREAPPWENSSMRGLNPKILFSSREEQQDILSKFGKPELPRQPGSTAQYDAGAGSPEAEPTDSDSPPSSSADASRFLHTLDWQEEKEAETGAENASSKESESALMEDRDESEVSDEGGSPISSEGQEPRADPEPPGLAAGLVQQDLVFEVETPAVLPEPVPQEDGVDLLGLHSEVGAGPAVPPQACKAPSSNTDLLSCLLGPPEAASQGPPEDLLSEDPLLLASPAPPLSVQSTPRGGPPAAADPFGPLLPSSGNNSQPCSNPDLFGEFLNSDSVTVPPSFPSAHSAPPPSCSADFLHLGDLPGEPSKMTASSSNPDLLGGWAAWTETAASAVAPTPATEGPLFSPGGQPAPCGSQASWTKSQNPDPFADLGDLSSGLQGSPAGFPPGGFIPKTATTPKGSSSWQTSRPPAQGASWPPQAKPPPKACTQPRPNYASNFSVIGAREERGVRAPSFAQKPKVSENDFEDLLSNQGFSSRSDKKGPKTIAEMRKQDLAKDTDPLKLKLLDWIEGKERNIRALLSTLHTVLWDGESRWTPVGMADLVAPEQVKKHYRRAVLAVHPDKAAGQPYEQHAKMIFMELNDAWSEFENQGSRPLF
Protocol: (§1) 1e^6 cells were plated in 15 cm plates (Greiner) 3 days before treatment and kept in a humidified atmosphere with 5% CO2 at 37 °C. The growth medium was replaced by 10 ml treatment [DMEM with 0.5% FBS and 100 units/ml PS supplemented with the corresponding concentration of NVP-BHG712 (Sigma-Aldrich) or DMSO] and incubated at 37 °C, 5% CO2 for 3 h. Then, 10 μl 25 mM XO44 (PF-6808472, Sigma-Aldrich) was added directly to the medium and swirled to enable dissolution. Subsequently, the cells were incubated at 37 °C, 5% CO2 for 4 h. The samples for Supplemental Fig. S1 were generated by directly incubating with 25 μM XO44-containing growth medium for 4 h.
(§2) After treatment, the cells were washed with ice-cold DPBS and harvested using a cell scraper in 1 ml ice-cold DPBS. Then, the cell suspension was spun down at 2000g for 1 min, and the supernatant was aspirated. The cell pellet was snap-frozen in liquid nitrogen and stored at −80 °C for later use.
(§3) Cell pellets were lysed in 500 μl lysis buffer per 15 cm plate of cells, consisting of 50 mM Hepes (Sigma-Aldrich, pH 7.5), 0.5% NP-40 (Applichem), 0.2% SDS (Gen-Apex), 2 mM MgCl2 (Sigma-Aldrich), 10 mM NaCl (Merck), 1× protease inhibitor cocktail (Roche), and 0.5 μl/ml Benzonase (Millipore). Cell lysates were incubated at room temperature for 15 min to allow DNA cleavage. Cell debris and DNA were spun down for 30 min at 20,567g at 16 °C. The supernatant was collected, and the protein concentration was determined by a bicinchoninic acid assay (Thermo Fisher Scientific).
(§4) The copper(I)-catalyzed azide-alkyne cycloaddition (CuAAC) was performed on cellular lysates in 2 M urea (Merck) in 1× 50 mM Hepes (pH 7.5). CuAAC components were added in the following order: 5 mM tris(3-hydroxypropyltriazolylmethyl)amine (Lumiprobe), 2.5 mM CuSO4 5·H2O (Sigma-Aldrich), 500 μM phosphonate-azide (prepared as described in van Bergen et al., 2023 ([28])), and 25 mM sodium ascorbate (Sigma-Aldrich). Samples were incubated for 2 h at room temperature while rotating. Methanol–chloroform precipitation was performed to remove the CuAAC components, and the air-dried pellets were resuspended in 8 M urea and sonicated in a bioruptor (Diagenode) with the high amplitude setting for 10 min with cycles of 30 s on and 30 s off.
(§5) Clicked and dissolved protein samples were diluted to 4M urea with 50 mM ammonium bicarbonate (pH 8, AmBic, Sigma-Aldrich). The proteins were reduced with 4 mM DTT (Sigma-Aldrich) for 60 minutes at room temperature and alkylated in the dark using 8 mM iodoacetamide (Sigma-Aldrich) for 30 min. Residual iodoacetamide was quenched by adding DTT to a final concentration of 4 mM.
(§6) Next, samples were diluted 2× with 50 mM AmBic and digested with LysC (1:75 enzyme to protein ratio, Wako) for 4 h at 37 °C. Finally, proteins were digested overnight using Trypsin (1:50, enzyme to protein ratio, Sigma-Aldrich) at 37 °C. Proteolysis with chymotrypsin was performed similarly to the trypsin digestion, only replacing both proteolytic enzymes with α-chymotrypsin (bovine, 1:75, enzyme to protein ratio, Sigma-Aldrich) overnight at 37 °C. Digested material was desalted using 3 cc C18 Seppak cartridges (Waters) and air dried using a vacuum centrifuge.
(§7) For the digestion with pepsin, protease incubation (Porcine, 1:50, enzyme to protein ratio, Sigma-Aldrich) was performed for 4 h at 37 °C in 40 mM HCl (pH 2). Digested material was directly desalted using 3 cc C18 Seppak cartridges and air dried using a vacuum centrifuge.
(§8) Samples were dephosphorylated prior to immobilized metal affinity chromatography (IMAC) enrichment. Desalted peptides were dissolved in 1× rCutSmart buffer (pH 8, New England BioLabs) and incubated with 50 units of alkaline phosphatase (calf intestinal, QuickCIP, New England BioLabs) overnight at 37 °C while shaking. After dephosphorylation, all peptides were again desalted using 3 cc C18 Seppak cartridges and air-dried using a vacuum centrifuge. […]

LYN = molecular target: T2, LYN (Homo sapiens, UniProt P07948); assay: as above; assay type: binding; conditions: apparent IC50, pepsin-based analysis, n = 3, read-out: IC50 LYN;K275
T2 construct: endogenous in cells; host or cells: cultured cells treated intact (A549 per the earlier reading)
Protocol: as §1, §2, §3, §4, §5, §6, §7, §8

JAK2 = molecular target: T3, JAK2 (Homo sapiens, UniProt O60674); assay: as above; assay type: binding; conditions: 0.1 nM to 25 µM inhibitor, trypsin and pepsin
T3 construct: endogenous in cells; host or cells: cultured cells treated intact (A549 per the earlier reading)
Protocol: as §1, §2, §3, §4, §5, §6, §7, §8

EphB4 = molecular target: T4, EphB4 (Homo sapiens, UniProt P54760); assay: as above; assay type: binding; conditions: apparent IC50, 3 h inhibitor then 25 μM XO44 4 h, n = 3, read-out: IC50 EphB4;K647
T4 construct: endogenous in cells; host or cells: cultured cells treated intact (A549 per the earlier reading)
T4 sequence (P54760 16-987): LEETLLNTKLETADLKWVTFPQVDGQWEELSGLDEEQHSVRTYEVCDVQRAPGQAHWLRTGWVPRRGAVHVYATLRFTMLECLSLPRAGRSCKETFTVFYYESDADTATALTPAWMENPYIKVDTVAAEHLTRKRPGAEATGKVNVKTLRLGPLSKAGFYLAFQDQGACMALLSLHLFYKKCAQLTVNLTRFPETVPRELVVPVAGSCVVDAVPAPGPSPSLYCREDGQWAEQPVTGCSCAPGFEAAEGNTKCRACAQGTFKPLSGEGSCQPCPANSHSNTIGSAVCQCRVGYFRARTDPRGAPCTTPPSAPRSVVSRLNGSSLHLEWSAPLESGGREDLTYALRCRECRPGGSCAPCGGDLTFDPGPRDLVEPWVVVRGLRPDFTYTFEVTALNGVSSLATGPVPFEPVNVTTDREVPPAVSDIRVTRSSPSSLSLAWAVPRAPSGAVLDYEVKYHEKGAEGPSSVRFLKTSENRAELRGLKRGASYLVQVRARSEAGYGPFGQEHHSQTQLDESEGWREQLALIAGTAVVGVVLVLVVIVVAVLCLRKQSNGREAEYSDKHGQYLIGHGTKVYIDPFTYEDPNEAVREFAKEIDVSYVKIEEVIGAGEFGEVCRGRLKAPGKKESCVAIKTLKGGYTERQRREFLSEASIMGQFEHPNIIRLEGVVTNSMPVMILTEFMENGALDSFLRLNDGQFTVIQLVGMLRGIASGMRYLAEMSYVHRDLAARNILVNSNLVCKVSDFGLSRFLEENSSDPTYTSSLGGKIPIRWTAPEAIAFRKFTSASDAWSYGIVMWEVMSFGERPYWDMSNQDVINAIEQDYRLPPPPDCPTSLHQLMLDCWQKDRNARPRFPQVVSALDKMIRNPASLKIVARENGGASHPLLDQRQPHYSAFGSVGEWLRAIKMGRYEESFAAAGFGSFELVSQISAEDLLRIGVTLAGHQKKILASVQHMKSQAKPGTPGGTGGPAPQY
Protocol: as §1, §2, §3, §4, §5, §6, §7, §8

[2] = molecular target: T5, neurotrophic receptor tyrosine kinase 3 (NTRK3) (Homo sapiens, UniProt Q16288); assay: as above; assay type: binding; conditions: 0.1 nM to 25 µM inhibitor, pepsin
T5 construct: endogenous in cells; host or cells: cultured cells treated intact (A549 per the earlier reading)
Protocol: as §1, §2, §3, §4, §5, §6, §7, §8

[3] = tested on: apoptosis signal-regulating kinases 1-3 (MAP3K5/6/15); assay: as above; assay type: binding, human; conditions: apparent IC50, nonunique peptide, n = 3, read-out: IC50 MAP3K5/6/15 (nonunique peptide: MAP3K5;K709, MAP3K6;K677, MAP3K15;K681)
Protocol: as §1, §2
as §3, with “Cell lysates were incubated at room temperature for 15 min to allow DNA cleavage. Cell debris and DNA were spun down for 30 min at 20,567g at 16 °C.” left out, “Scientific). […]” for “Scientific).”

EphA2 [4] = tested on: EphA2; design: method as in PMID 29928781; conditions: read-out: Literature value for EphA2, NanoBRET assay; cited from earlier work
EphA2 [5] = molecular target: EphA2; design: method as in PMID 29928781; conditions: read-out: Literature value for EphA2, kinobeads; cited from earlier work
EphA2 [6] = molecular target: EphA2; design: method as in PMID 29928781; conditions: read-out: Literature value for EphA2, microscale thermo-phoresis; cited from earlier work
DDR1 = tested on: DDR1; design: method as in PMID 36799129; conditions: cited from earlier work

T2 sequence (P07948 whole entry): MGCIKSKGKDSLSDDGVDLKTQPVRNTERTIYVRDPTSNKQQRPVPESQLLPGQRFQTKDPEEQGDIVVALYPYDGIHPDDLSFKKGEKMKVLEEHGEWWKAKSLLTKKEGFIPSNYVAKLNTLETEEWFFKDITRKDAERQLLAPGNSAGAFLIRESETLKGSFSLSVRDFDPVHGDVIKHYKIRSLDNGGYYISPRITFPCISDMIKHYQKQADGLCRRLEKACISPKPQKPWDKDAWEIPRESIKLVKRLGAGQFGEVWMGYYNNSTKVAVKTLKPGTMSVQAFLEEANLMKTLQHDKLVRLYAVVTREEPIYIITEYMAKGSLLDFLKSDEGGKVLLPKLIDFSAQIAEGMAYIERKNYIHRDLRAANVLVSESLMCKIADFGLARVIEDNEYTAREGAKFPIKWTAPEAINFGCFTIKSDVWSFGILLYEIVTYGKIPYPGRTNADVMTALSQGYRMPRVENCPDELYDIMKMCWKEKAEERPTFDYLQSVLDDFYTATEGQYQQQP
T5 sequence (Q16288 32-839): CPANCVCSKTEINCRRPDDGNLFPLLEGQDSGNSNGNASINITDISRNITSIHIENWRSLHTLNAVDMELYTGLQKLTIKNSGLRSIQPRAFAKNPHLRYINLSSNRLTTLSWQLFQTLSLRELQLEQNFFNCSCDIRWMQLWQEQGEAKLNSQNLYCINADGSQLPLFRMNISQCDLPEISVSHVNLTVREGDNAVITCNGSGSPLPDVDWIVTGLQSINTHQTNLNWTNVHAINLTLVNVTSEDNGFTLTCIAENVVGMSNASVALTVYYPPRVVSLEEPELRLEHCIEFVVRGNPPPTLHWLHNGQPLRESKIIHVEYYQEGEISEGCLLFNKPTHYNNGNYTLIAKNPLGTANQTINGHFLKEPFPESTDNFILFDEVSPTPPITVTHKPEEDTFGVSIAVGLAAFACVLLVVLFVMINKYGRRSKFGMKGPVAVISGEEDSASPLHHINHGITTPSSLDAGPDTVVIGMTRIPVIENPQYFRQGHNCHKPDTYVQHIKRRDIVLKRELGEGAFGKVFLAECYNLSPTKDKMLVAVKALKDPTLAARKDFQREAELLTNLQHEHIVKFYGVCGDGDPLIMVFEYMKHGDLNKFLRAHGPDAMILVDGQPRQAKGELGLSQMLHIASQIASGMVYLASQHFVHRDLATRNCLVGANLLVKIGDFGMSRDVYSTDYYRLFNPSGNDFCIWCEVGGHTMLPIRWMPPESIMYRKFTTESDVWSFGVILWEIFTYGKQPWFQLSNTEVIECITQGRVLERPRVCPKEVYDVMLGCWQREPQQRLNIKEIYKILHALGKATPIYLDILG
T3 sequence (O60674 whole entry): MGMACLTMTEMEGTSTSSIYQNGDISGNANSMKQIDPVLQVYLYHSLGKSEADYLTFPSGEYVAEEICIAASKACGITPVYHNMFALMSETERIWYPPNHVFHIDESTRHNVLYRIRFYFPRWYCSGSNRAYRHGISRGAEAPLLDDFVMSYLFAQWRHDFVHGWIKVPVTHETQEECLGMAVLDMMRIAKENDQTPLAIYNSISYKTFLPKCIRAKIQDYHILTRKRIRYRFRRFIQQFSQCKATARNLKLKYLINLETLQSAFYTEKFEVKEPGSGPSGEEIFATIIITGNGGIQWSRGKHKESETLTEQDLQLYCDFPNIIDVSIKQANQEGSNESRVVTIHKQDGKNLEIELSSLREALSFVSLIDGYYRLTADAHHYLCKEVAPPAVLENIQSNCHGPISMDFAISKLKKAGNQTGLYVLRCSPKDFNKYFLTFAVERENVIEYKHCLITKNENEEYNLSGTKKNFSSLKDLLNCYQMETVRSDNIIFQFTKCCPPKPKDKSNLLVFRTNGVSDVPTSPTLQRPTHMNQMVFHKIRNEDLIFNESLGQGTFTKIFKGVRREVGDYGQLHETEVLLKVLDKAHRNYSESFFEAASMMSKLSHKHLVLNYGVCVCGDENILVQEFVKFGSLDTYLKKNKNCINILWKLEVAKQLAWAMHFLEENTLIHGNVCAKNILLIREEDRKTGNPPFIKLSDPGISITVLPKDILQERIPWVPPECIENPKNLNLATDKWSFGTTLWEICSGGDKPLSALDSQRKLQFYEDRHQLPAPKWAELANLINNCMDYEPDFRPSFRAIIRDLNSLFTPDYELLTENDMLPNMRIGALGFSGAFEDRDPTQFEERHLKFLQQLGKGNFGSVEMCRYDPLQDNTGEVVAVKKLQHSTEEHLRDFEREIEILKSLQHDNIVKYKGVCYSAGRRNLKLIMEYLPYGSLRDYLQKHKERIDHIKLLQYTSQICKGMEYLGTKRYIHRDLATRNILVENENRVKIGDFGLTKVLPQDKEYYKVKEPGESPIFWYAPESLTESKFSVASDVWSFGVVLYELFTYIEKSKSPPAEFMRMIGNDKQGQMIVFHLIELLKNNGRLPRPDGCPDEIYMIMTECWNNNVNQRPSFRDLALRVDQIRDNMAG

For NVP-BHG712, the IC50 [1] was 13000 nM, the IC50 (LYN) was 13400 nM and the “Interaction with ATP-binding pocket, JAK2;K882 signal across the concentration range” value (JAK2) was “do not interact”. For the same substance, the IC50 (EphB4) was 20 nM and 20.2 nM, the “MaxLFQ signal of XO44-bound NTRK3;K572 over the concentration range” value [2] was “stable MaxLFQ signal over the full concentration range” and the IC50 [3] was 9700 nM. The IC50 (EphA2 [4]) was 3 nM, the Kd (EphA2 [5]) was 240 nM and the Kd (EphA2 [6]) was 13 nM. For the same substance, the “Binding to DDR1 in kinobeads profiling” value (DDR1) was “does not bind”.
